The results in this text go back to ChEMBL document CHEMBL4823252 (J Med Chem, 2021).

The IC50 is the concentration that inhibits the measured activity by half.

For series [1], the target named is T1, Receptor-type tyrosine-protein kinase FLT3 (Homo sapiens, UniProt P36888).
T1 sequence (P36888 whole entry): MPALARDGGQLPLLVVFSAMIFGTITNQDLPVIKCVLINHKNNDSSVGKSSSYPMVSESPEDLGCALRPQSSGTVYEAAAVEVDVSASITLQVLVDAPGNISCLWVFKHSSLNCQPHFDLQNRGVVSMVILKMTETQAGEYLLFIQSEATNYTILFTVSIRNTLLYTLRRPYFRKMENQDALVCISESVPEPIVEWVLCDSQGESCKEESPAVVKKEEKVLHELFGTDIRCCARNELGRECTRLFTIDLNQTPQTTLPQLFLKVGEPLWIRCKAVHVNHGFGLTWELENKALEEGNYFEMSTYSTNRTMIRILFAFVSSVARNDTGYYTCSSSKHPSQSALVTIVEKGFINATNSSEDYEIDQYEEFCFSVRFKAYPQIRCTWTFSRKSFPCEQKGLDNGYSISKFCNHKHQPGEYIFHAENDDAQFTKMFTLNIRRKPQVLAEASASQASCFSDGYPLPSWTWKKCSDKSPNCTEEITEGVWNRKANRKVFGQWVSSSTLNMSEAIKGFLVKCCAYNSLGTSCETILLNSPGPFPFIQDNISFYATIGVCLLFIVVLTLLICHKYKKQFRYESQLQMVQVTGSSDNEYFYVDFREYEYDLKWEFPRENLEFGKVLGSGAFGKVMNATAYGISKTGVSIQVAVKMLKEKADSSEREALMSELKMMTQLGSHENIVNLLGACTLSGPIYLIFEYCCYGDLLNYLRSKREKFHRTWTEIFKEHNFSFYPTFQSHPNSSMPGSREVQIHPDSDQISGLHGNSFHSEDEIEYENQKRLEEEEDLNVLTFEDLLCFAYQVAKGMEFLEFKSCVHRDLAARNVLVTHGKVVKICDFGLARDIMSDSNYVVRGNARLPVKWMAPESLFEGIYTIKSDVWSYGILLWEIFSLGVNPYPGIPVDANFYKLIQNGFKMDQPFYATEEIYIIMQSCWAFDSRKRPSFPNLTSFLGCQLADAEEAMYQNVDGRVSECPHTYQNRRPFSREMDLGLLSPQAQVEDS
Briefly: Inhibition of FLT3 (unknown origin) incubated for 30 mins in presence of ATP by mobility shift assay.

The test system of series [2] is MOLM-13. Briefly: Antiproliferative activity against human MOLM-13 cells incubated for 72 hrs by Cell Counting Kit-8 assay. Type of series: functional, cell-based. The note with it: MOLM-13, 72 h.
The subject of another series is MV4-11. Briefly: Antiproliferative activity against human MV4-11 cells incubated for 72 hrs by Cell Counting Kit-8 assay. Type of series: functional, cell-based. Conditions: MV4-11, 72 h.
A short description of series [3]: Chemical stability of compound incubated for 90 days by HPLC analysis. Type of series: physicochemical. Conditions: time 90 day; read-out: Stabilty.
The subject of series [4] is MOLM-13. Briefly: Antiproliferative activity against human sunitinib-resistant MOLM-13 cells at 1 nM incubated for 72 hrs by CCK8 assay relative to control. Type of series: functional. On the technique in general: Tetrazolium dyes change colour on reduction, which living cells bring about.
Series [5] deals with MOLM-13. Briefly: Antiproliferative activity against human sunitinib-resistant MOLM-13 cells at 111 nM incubated for 72 hrs by CCK8 assay relative to control. It is filed as functional.
Series [6] deals with MOLM-13. Briefly: Antiproliferative activity against human quizartinib-resistant MOLM-13 cells at 111 nM incubated for 72 hrs by CCK8 assay relative to control. It is filed as functional.
Series [7] deals with MOLM-13. Briefly: Antiproliferative activity against human sunitinib-resistant MOLM-13 cells at 4 nM incubated for 72 hrs by CCK8 assay relative to control. Type of series: functional.
The test system of series [8] is MOLM-13. Briefly: Antiproliferative activity against human quizartinib-resistant MOLM-13 cells at 1 nM incubated for 72 hrs by CCK8 assay relative to control. Type of series: functional.
In series [9] the test system is MOLM-13. Briefly: Antiproliferative activity against human quizartinib-resistant MOLM-13 cells at 333 nM incubated for 72 hrs by CCK8 assay relative to control. Type of series: functional.
Series [10] concerns MOLM-13. Briefly: Antiproliferative activity against human quizartinib-resistant MOLM-13 cells at 1000 nM incubated for 72 hrs by CCK8 assay relative to control. It is filed as functional.
The subject of series [11] is MOLM-13. Briefly: Antiproliferative activity against human quizartinib-resistant MOLM-13 cells at 4 nM incubated for 72 hrs by CCK8 assay relative to control. Type of series: functional.
The test system of series [12] is MOLM-13. Briefly: Antiproliferative activity against human quizartinib-resistant MOLM-13 cells at 12 nM incubated for 72 hrs by CCK8 assay relative to control. Type of series: functional.
Series [13] has as its system MOLM-13. Briefly: Antiproliferative activity against human sunitinib-resistant MOLM-13 cells at 333 nM incubated for 72 hrs by CCK8 assay relative to control. Type of series: functional.
Series [14] has as its system MOLM-13. Briefly: Antiproliferative activity against human quizartinib-resistant MOLM-13 cells at 37 nM incubated for 72 hrs by CCK8 assay relative to control. Type of series: functional.
Series [15] concerns MOLM-13. Briefly: Antiproliferative activity against human sunitinib-resistant MOLM-13 cells at 12 nM incubated for 72 hrs by CCK8 assay relative to control. It is filed as functional.
Series [16] relates to MOLM-13. Briefly: Antiproliferative activity against human sunitinib-resistant MOLM-13 cells at 37 nM incubated for 72 hrs by CCK8 assay relative to control. It is filed as functional.
Series [17] relates to MOLM-13. Briefly: Antiproliferative activity against human sunitinib-resistant MOLM-13 cells at 1000 nM incubated for 72 hrs by CCK8 assay relative to control. Type of series: functional.

In the case of `CCCNCCC(=O)Nc1c[nH]c(/C=C2\C(=O)Nc3ccc(F)cc32)c1C`, the IC50 stood at 1.7 nM in series [1], 57.4 nM with MOLM-13 [2] and 34.7 nM in the series on MV4-11.
As for `Cc1c(NC(=O)C2CCNCC2)c[nH]c1/C=C1\C(=O)Nc2ccc(F)cc21`, the concentration for half-maximal inhibition (IC50) in the series with MOLM-13 [2] stood at 143 nM; with MV4-11 it was 177 nM.
`COc1ccc2c(c1)/C(=C/c1[nH]cc(NC(=O)CCN3CCCC3)c1C)C(=O)N2`: the IC50 stood at 55.7 nM in the series with MOLM-13 [2] and 28.9 nM with MV4-11.
As to `Cc1[nH]c(/C=C2\C(=O)Nc3ccc(F)cc32)c(C)c1NC(=O)[C@@H]1CCCN1`, in the series with MV4-11, the IC50 was 40.9 nM. Moreover, the remaining at 2160 h in series [3] was found to be 80.8%.
As to `Cc1c(NC(=O)[C@H]2CCCN2)c[nH]c1/C=C1\C(=O)Nc2ccc(F)cc21`, the half-inhibitory concentration (IC50) in the series on MOLM-13 [2] was 70.8 nM; in the series on MV4-11, 69.9 nM.
In the case of `CCN(CC)CCC(=O)Nc1c[nH]c(/C=C2\C(=O)Nc3ccc(F)cc32)c1C`, the figures for the IC50 (in [1]; in the series with MOLM-13 [2]; in the series on MV4-11) were 2 nM, 54.3 nM and 30.3 nM, respectively.
On to `CC(C)(C)c1cc(NC(=O)Nc2ccc(-c3cn4c(n3)sc3cc(OCCN5CCOCC5)ccc34)cc2)no1` [QUIZARTINIB], for which the Activity with MOLM-13 [4] is 1.4%; in the series on MOLM-13 [5], -1.5%; in the series with MOLM-13 [6], -5.8%; in the series on MOLM-13 [7], -0.9%; with MOLM-13 [8], 5.2%; in the series with MOLM-13 [9], -4.1%. Further, the Activity in the series on MOLM-13 [10] is given as 1.3%; in the series on MOLM-13 [11], -0.4%; in the series with MOLM-13 [12], 2.9%; in the series with MOLM-13 [13] it was 5.7%; in the series with MOLM-13 [14], -0.8%; with MOLM-13 [15] it was 2.8%. In addition, the Activity in the series on MOLM-13 [16] came to 0.2%; in the series on MOLM-13 [17], 10.9%.
In the case of `CCN(CC)CC(=O)Nc1c[nH]c(/C=C2\C(=O)Nc3ccc(F)cc32)c1C`, the IC50 in the series with MOLM-13 [2] is 176 nM; in the series on MV4-11, 81.7 nM.
As for `Cc1c(NC(=O)[C@@H]2CCCN2)c[nH]c1/C=C1\C(=O)Nc2ccc(F)cc21`, the IC50 in series [1] was found to be 2.5 nM; in the series with MOLM-13 [2], 35.9 nM; in the series on MV4-11, 37.2 nM. The remaining at 2160 h in series [3] is 99.1%.
For `Cc1c(NC(=O)CCN(C)C)c[nH]c1/C=C1\C(=O)Nc2ccc(F)cc21`, the IC50 was found to be 1.7 nM in [1], 57 nM in the series on MOLM-13 [2] and 32.4 nM in the series with MV4-11.
As to `Cc1c(NC(=O)CC2CCCN2)c[nH]c1/C=C1\C(=O)Nc2ccc(F)cc21` (stereo unspecified), the IC50 in [1] is 2.7 nM; with MOLM-13 [2], 35.9 nM; with MV4-11, 50 nM.
`Cc1c(NC(=O)CNC2CCCC2)c[nH]c1/C=C1\C(=O)Nc2ccc(F)cc21`: the IC50 in the series with MOLM-13 [2] came out at 158 nM; with MV4-11, 125 nM.
With `Cc1c(NC(=O)CN2CCN(C)CC2)c[nH]c1/C=C1\C(=O)Nc2ccc(F)cc21`, the results for the 50% inhibitory concentration (IC50) (in series [1]; in the series on MOLM-13 [2]; with MV4-11) were 2.7 nM, 48.4 nM and 51.8 nM, respectively.
In the same order, the values of `Cc1c(NC(=O)CCNC2CCCC2)c[nH]c1/C=C1\C(=O)Nc2ccc(F)cc21` are 0.6 nM, 44.3 nM and 29.2 nM.
In the case of `Cc1c(NC(=O)CN(C)C)c[nH]c1/C=C1\C(=O)Nc2ccc(F)cc21`, the IC50 in series [1] is 2 nM; in the series on MOLM-13 [2] it was 36 nM; in the series on MV4-11, 78.6 nM.
As for `CCNCCC(=O)Nc1c[nH]c(/C=C2\C(=O)Nc3ccc(F)cc32)c1C`, the half-maximal inhibitory concentration (IC50) in series [1] came out at 2.5 nM; in the series with MOLM-13 [2] it was 51.2 nM; in the series on MV4-11, 34.5 nM.
For the molecule `Cc1c(NC(=O)CN2CCCC2)c[nH]c1/C=C1\C(=O)Nc2ccc(F)cc21`, the IC50 in [1] came to 1.4 nM; with MOLM-13 [2], 61.9 nM; with MV4-11, 77 nM.
Turning to `Cc1c(NC(=O)CCN2CCCCC2)c[nH]c1/C=C1\C(=O)Nc2ccc(F)cc21`, the IC50 is 1.3 nM in series [1], 64.2 nM in the series with MOLM-13 [2] and 44.2 nM in the series on MV4-11.
For `Cc1c(NC(=O)CCNC(C)(C)C)c[nH]c1/C=C1\C(=O)Nc2ccc(F)cc21`, the IC50 in series [1] is 1.8 nM; with MOLM-13 [2], 58.2 nM; in the series on MV4-11, 44.8 nM.
For the molecule `Cc1c(NC(=O)C2CCCCN2)c[nH]c1/C=C1\C(=O)Nc2ccc(F)cc21` (stereo unspecified), the figures for the concentration for half-maximal inhibition (IC50) (in series [1]; in the series on MOLM-13 [2]; in the series with MV4-11) were 2.4 nM, 59.2 nM and 54.4 nM, respectively.
For `Cc1c(NC(=O)CCN2CCN(C)CC2)c[nH]c1/C=C1\C(=O)Nc2ccc(F)cc21`, the figures for the half-inhibitory concentration (IC50) (in series [1]; in the series with MOLM-13 [2]; in the series on MV4-11) were 3 nM, 47.5 nM and 41.3 nM, respectively.
Consider `Cc1c(NC(=O)CN2CCCCC2)c[nH]c1/C=C1\C(=O)Nc2ccc(F)cc21`, for which the IC50 is over 1000 nM in the series on MOLM-13 [2] and 252 nM with MV4-11.
`Cc1c(/C=C2\C(=O)Nc3ccc(F)cc32)[nH]c(Cl)c1NC(=O)[C@@H]1CCCN1`: the midpoint of inhibition in the series on MV4-11, the IC50, lay at 50.7 nM. The remaining at 2160 h in series [3] is 95.4%.
For `Cc1c(NC(=O)CCN2CCCC2)c[nH]c1/C=C1\C(=O)Nc2ccc(Cl)cc21`, the IC50 in the series on MOLM-13 [2] was 64.5 nM; in the series with MV4-11, 20.9 nM.
As for `Cc1c(NC(=O)CCN2CCOCC2)c[nH]c1/C=C1\C(=O)Nc2ccc(F)cc21`, the half-inhibitory concentration (IC50) with MOLM-13 [2] is 173 nM; with MV4-11, 133 nM.
On to `Cc1c(NC(=O)CCN2CCCC2)c[nH]c1/C=C1\C(=O)Nc2ccc(Br)cc21`, for which the IC50 turned out to be 71.5 nM with MOLM-13 [2] and 58.6 nM in the series with MV4-11.
Turning to `Cc1c(/C=C2\C(=O)Nc3ccc(F)cc32)[nH]c(Br)c1NC(=O)[C@@H]1CCCN1`, inhibition with MV4-11 was half-maximal at 61.5 nM (IC50). The remaining at 2160 h in series [3] was 96.6%.
